{"source": "patent US9113629B2", "about": "“4-amino-6-(4-substituted-phenyl)-picolinates and 6-amino-2-(4-substituted-phenyl)-pyrimidine-4-carboxylates and their use as herbicides” (DOW AGROSCIENCES LLC, priority 2013, dated 2015)", "key": {"[1]": {"tested_on": "Key Broadleaf Weed and Crop Species", "assay": "Post-emergent Test II herbicidal activity (Table 5)", "format": "in vivo", "conditions": "post-emergence, 336 h, post-emergent, 14 days after application; for pest or weed control at 70 g/ha: 70 g ai/ha; for pest or weed control at 140 g/ha: 140 g ai/ha", "method_in_brief": "(§1)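 Greenhouse-grown plants at first or second true leaf stage were sprayed post-emergence with compound in acetone/DMSO-based aqueous spray containing crop oil concentrate and surfactant, at 187 L/ha, highest rate plus ½× to 1/16× dilutions. After 14 d, injury was scored visually versus untreated plants, 0 (none) to 100% (complete kill).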"}, "[2]": {"tested_on": "Key Grass and Sedge Weeds as well as Grass Crops", "assay": "Post-emergent Test II herbicidal activity (Table 6)", "format": "in vivo", "conditions": "post-emergence, 336 h; for pest or weed control at 70 g/ha: application rate 70 g ai/ha; for pest or weed control at 140 g/ha: application rate 140 g ai/ha", "method_in_brief": "as §1"}, "[3]": {"conditions": "ABUTH: velvetleaf (Abutilon theophrasti), read-out: Visual Growth Reduction (%) 14 Days After Application ABUTH"}, "[4]": {"conditions": "AMARE: redroot pigweed (Amaranthus retroflexus), read-out: Visual Growth Reduction (%) 14 Days After Application AMARE"}, "[5]": {"conditions": "BRSNN: oilseed-rape, canola (Brassica napus), read-out: Visual Growth Reduction (%) 14 Days After Application BRSNN"}, "[6]": {"conditions": "CHEAL: lambsquarters (Chenopodium album), read-out: Visual Growth Reduction (%) 14 Days After Application CHEAL"}, "[7]": {"conditions": "EPHHL: wild poinsettia (Euphorbia heterophylla), read-out: Visual Growth Reduction (%) 14 Days After Application EPHHL"}, "[8]": {"conditions": "HELAN: sunflower (Helianthus annuus), read-out: Visual Growth Reduction (%) 14 Days After Application HELAN"}, "[9]": {"conditions": "VIOTR: wild pansy (Viola tricolor), read-out: Visual Growth Reduction (%) 14 Days After Application VIOTR"}, "[10]": {"conditions": "Triticum aestivum, TRZSS (wheat), read-out: Visual Growth Reduction (%) 14 Days After Application, TRZSS"}, "[11]": {"conditions": "CYPES: yellow nutsedge (Cyperus esculentus), read-out: Visual Growth Reduction (%) 14 Days After Application, CYPES"}, "[12]": {"conditions": "DIGSA: crabgrass (Digitaria sanguinalis), read-out: Visual Growth Reduction (%) 14 Days After Application, DIGSA"}, "[13]": {"conditions": "ECHCG: barnyardgrass (Echinochloa crus-galli), read-out: Visual Growth Reduction (%) 14 Days After Application, ECHCG"}, "[14]": {"conditions": "ORYSA: rice (Oryza sativa), read-out: Visual Growth Reduction (%) 14 Days After Application, ORYSA"}, "[15]": {"conditions": "SETFA: giant foxtail (Setaria faberi), read-out: Visual Growth Reduction (%) 14 Days After Application, SETFA"}, "[16]": {"conditions": "SORVU: grain sorghum (Sorghum vulgare), read-out: Visual Growth Reduction (%) 14 Days After Application, SORVU"}, "[17]": {"conditions": "ZEAMX: maize, corn (Zea mays), read-out: Visual Growth Reduction (%) 14 Days After Application, ZEAMX"}}, "note": "Where two headings read alike, the source gives them in different places.", "data": [{"smiles": "Cc1c(-c2ccc(I)cc2)nc(C(=O)O)c(Cl)c1N", "note": "[Compound 116, 4-Amino-3-chloro-6-(4-iodophenyl)-5-methylpicolinic acid]", "values": [{"measurement": "pest or weed control at 70 g/ha", "setting": "[1]; [3]", "value": "95 to 100", "unit": "%"}, {"measurement": "pest or weed control at 140 g/ha", "setting": "[1]; [3]", "value": "95 to 100", "unit": "%"}, {"measurement": "pest or weed control at 70 g/ha", "setting": "[1]; [4]", "value": "75 to 84", "unit": "%"}, {"measurement": "pest or weed control at 140 g/ha", "setting": "[1]; [4]", "value": "85 to 94", "unit": "%"}, {"measurement": "pest or weed control at 70 g/ha", "setting": "[1]; [5]", "value": "85 to 94", "unit": "%"}, {"measurement": "pest or weed control at 140 g/ha", "setting": "[1]; [5]", "value": "95 to 100", "unit": "%"}, {"measurement": "pest or weed control at 70 g/ha", "setting": "[1]; [6]", "value": "85 to 94", "unit": "%"}, {"measurement": "pest or weed control at 140 g/ha", "setting": "[1]; [6]", "value": "85 to 94", "unit": "%"}, {"measurement": "pest or weed control at 70 g/ha", "setting": "[1]; [7]", "value": "0 to 29", "unit": "%"}, {"measurement": "pest or weed control at 140 g/ha", "setting": "[1]; [7]", "value": "0 to 29", "unit": "%"}, {"measurement": "pest or weed control at 70 g/ha", "setting": "[1]; [8]", "value": "95 to 100", "unit": "%"}, {"measurement": "pest or weed control at 140 g/ha", "setting": "[1]; [8]", "value": "95 to 100", "unit": "%"}, {"measurement": "pest or weed control at 70 g/ha", "setting": "[1]; [9]", "value": "0 to 29", "unit": "%"}, {"measurement": "pest or weed control at 140 g/ha", "setting": "[1]; [9]", "value": "0 to 29", "unit": "%"}, {"measurement": "pest or weed control at 70 g/ha", "setting": "[2]; [10]", "value": "45 to 59", "unit": "%"}, {"measurement": "pest or weed control at 140 g/ha", "setting": "[2]; [10]", "value": "45 to 59", "unit": "%"}, {"measurement": "pest or weed control at 70 g/ha", "setting": "[2]; [11]", "value": "0 to 29", "unit": "%"}, {"measurement": "pest or weed control at 140 g/ha", "setting": "[2]; [11]", "value": "0 to 29", "unit": "%"}, {"measurement": "pest or weed control at 70 g/ha", "setting": "[2]; [12]", "value": "45 to 59", "unit": "%"}, {"measurement": "pest or weed control at 140 g/ha", "setting": "[2]; [12]", "value": "60 to 74", "unit": "%"}, {"measurement": "pest or weed control at 70 g/ha", "setting": "[2]; [13]", "value": "45 to 59", "unit": "%"}, {"measurement": "pest or weed control at 140 g/ha", "setting": "[2]; [13]", "value": "60 to 74", "unit": "%"}, {"measurement": "pest or weed control at 70 g/ha", "setting": "[2]; [14]", "value": "0 to 29", "unit": "%"}, {"measurement": "pest or weed control at 140 g/ha", "setting": "[2]; [14]", "value": "0 to 29", "unit": "%"}, {"measurement": "pest or weed control at 70 g/ha", "setting": "[2]; [15]", "value": "45 to 59", "unit": "%"}, {"measurement": "pest or weed control at 140 g/ha", "setting": "[2]; [15]", "value": "60 to 74", "unit": "%"}, {"measurement": "pest or weed control at 70 g/ha", "setting": "[2]; [16]", "value": "30 to 44", "unit": "%"}, {"measurement": "pest or weed control at 140 g/ha", "setting": "[2]; [16]", "value": "45 to 59", "unit": "%"}, {"measurement": "pest or weed control at 70 g/ha", "setting": "[2]; [17]", "value": "45 to 59", "unit": "%"}, {"measurement": "pest or weed control at 140 g/ha", "setting": "[2]; [17]", "value": "60 to 74", "unit": "%"}]}, {"smiles": "C=Cc1c(C(=O)O)nc(-c2ccc(Br)cc2)c(F)c1N", "note": "[Compound 117]", "values": [{"measurement": "pest or weed control at 70 g/ha", "setting": "[1]; [3]", "value": "95 to 100", "unit": "%"}, {"measurement": "pest or weed control at 140 g/ha", "setting": "[1]; [3]", "value": "95 to 100", "unit": "%"}, {"measurement": "pest or weed control at 70 g/ha", "setting": "[1]; [4]", "value": "95 to 100", "unit": "%"}, {"measurement": "pest or weed control at 140 g/ha", "setting": "[1]; [4]", "value": "95 to 100", "unit": "%"}, {"measurement": "pest or weed control at 70 g/ha", "setting": "[1]; [5]", "value": "75 to 84", "unit": "%"}, {"measurement": "pest or weed control at 140 g/ha", "setting": "[1]; [5]", "value": "75 to 84", "unit": "%"}, {"measurement": "pest or weed control at 70 g/ha", "setting": "[1]; [6]", "value": "95 to 100", "unit": "%"}, {"measurement": "pest or weed control at 140 g/ha", "setting": "[1]; [6]", "value": "95 to 100", "unit": "%"}, {"measurement": "pest or weed control at 70 g/ha", "setting": "[1]; [7]", "value": "95 to 100", "unit": "%"}, {"measurement": "pest or weed control at 140 g/ha", "setting": "[1]; [7]", "value": "95 to 100", "unit": "%"}, {"measurement": "pest or weed control at 70 g/ha", "setting": "[1]; [8]", "value": "85 to 94", "unit": "%"}, {"measurement": "pest or weed control at 140 g/ha", "setting": "[1]; [8]", "value": "85 to 94", "unit": "%"}, {"measurement": "pest or weed control at 70 g/ha", "setting": "[1]; [9]", "value": "0 to 29", "unit": "%"}, {"measurement": "pest or weed control at 140 g/ha", "setting": "[1]; [9]", "value": "0 to 29", "unit": "%"}, {"measurement": "pest or weed control at 70 g/ha", "setting": "[2]; [10]", "value": "0 to 29", "unit": "%"}, {"measurement": "pest or weed control at 140 g/ha", "setting": "[2]; [10]", "value": "0 to 29", "unit": "%"}, {"measurement": "pest or weed control at 70 g/ha", "setting": "[2]; [11]", "value": "95 to 100", "unit": "%"}, {"measurement": "pest or weed control at 140 g/ha", "setting": "[2]; [11]", "value": "95 to 100", "unit": "%"}, {"measurement": "pest or weed control at 70 g/ha", "setting": "[2]; [12]", "value": "0 to 29", "unit": "%"}, {"measurement": "pest or weed control at 140 g/ha", "setting": "[2]; [12]", "value": "0 to 29", "unit": "%"}, {"measurement": "pest or weed control at 70 g/ha", "setting": "[2]; [13]", "value": "75 to 84", "unit": "%"}, {"measurement": "pest or weed control at 140 g/ha", "setting": "[2]; [13]", "value": "75 to 84", "unit": "%"}, {"measurement": "pest or weed control at 70 g/ha", "setting": "[2]; [14]", "value": "45 to 59", "unit": "%"}, {"measurement": "pest or weed control at 140 g/ha", "setting": "[2]; [14]", "value": "45 to 59", "unit": "%"}, {"measurement": "pest or weed control at 70 g/ha", "setting": "[2]; [15]", "value": "0 to 29", "unit": "%"}, {"measurement": "pest or weed control at 140 g/ha", "setting": "[2]; [15]", "value": "45 to 59", "unit": "%"}, {"measurement": "pest or weed control at 70 g/ha", "setting": "[2]; [16]", "value": "85 to 94", "unit": "%"}, {"measurement": "pest or weed control at 140 g/ha", "setting": "[2]; [16]", "value": "85 to 94", "unit": "%"}, {"measurement": "pest or weed control at 70 g/ha", "setting": "[2]; [17]", "value": "45 to 59", "unit": "%"}, {"measurement": "pest or weed control at 140 g/ha", "setting": "[2]; [17]", "value": "60 to 74", "unit": "%"}]}]}
